For experiment [1], the system named is sub-genomic HCV NS3-NS5B replicon of genotype 1b (ET subline) in Huh-7 cells. Nature of the experiment: Replicon Luciferase Cell Based Assay, genotype 1b. Set-up: species or system HCV genotype 1b. To be noted: Hepatitis C virus, Huh-7, 48 h, read-out: Genotype 1b (IC50 μM). The method, then:
(§1) A 10 mM stock solution in DMSO of each test compound was further diluted in DMSO in the first row of a 384-well, V-bottom microplate, to give 100 times the top concentration of the required dilution series. Dilutions of compound were prepared in 1:3 serial dilutions from the first row onwards robotically. A robot was also used to transfer 0.5 μL volumes from each dilution well into wells of white 384-well assay plates (Nunc #164610). Control wells received 0.5 μL of DMSO alone. Plates were made in duplicate for measuring HCV replication and cytotoxicity in the replicon cell lines.
(§2) Suspensions were prepared from cultures of Huh-7 cells stably transfected with sub-genomic HCV NS3—NS5B replicons of either genotype 1b (the ET subline described by Pietschmann, T., Lohmann, V., Kaul, A., Krieger, N., Rinck, G., Rutter, G., Strand, D. & Bartenschlager, R., Journal of Virology, 2002, 76, 4008-4021) or genotype 1a linked to a firefly luciferase reporter gene. Monolayers nearing confluency were stripped from growth flasks with versene-trypsin solution and the cells re-suspended in assay medium comprising DMEM (Invitrogen #11965-092) supplemented with 5% v/v foetal calf serum, 1% v/v non-essential amino acids solution, 100 units/ml penicillin, 100 μg/ml streptomycin and 2 mM GlutaMAX-1. 50 μL of suspension containing 5,000 cells of either genotype 1b or genotype 1a luciferase replicon were added to all wells, except medium controls, of the assay plate with a Multidrop Combi (Thermo Scientific Corporation) and the plate incubated for 48 hours at 37° C. in a 5% CO2 atmosphere. A solution of Steady-Glo cytolytic buffer/luciferase substrate (Promega #E2550) was prepared according to the manufacturer's instructions, and 20 μL were added to each well with a Multidrop Combi. To measure cytotoxicity, a solution of CellTiter-Glo Luminescent Cell Viability Assay reagent (Promega #G7573) was prepared according to the manufacturer's instructions, and 20 ul were added to each well with a Multidrop Combi. The plates were then read for luminescence on an Envision Multilabel Reader (Perkin Elmer)
(§3) Potency: The luminescence values from all compound-free wells containing cells were averaged to obtain a positive control value. The mean luminescence value from the compound-free wells that had received no cells was used to provide the negative (background) control value. After the subtraction of the mean background from all values, the readings from wells at each compound concentration were expressed as a percentage of the positive control signal. The quantifiable and specific reduction of luciferase signal in the presence of a drug is a direct measure of replicon inhibition. The BioAssay application and XC50 module were used to plot the curve of percentage inhibition against compound concentration and derive the 50% inhibitory concentration (IC50) for the compound.
In general terms: In antiviral work, replicon cells carry a viral genome segment that copies itself.

Experiment [2] relates to sub-genomic HCV NS3-NS5B replicon of genotype 1a in Huh-7 cells. The experiment can be described thus: Replicon Luciferase Cell Based Assay, genotype 1a. To be noted: Hepatitis C virus, Huh-7, 48 hours. Set-up: species or system HCV genotype 1a. The method, then: as §1, §2, §3

What is called IC50 is the point on the concentration scale where inhibition reaches its midpoint. Take `COc1ccc2c(O[C@@H]3C[C@H]4C(=O)N[C@]5(C(=O)NS(=O)(=O)C6CC6)C[C@H]5/C=C\CCCCC[C@H](NC(=O)N5CCC(c6ccccc6)CC5)C(=O)N4C3)cc(-c3nc(C(C)C)cs3)nc2c1C` [Example 20, (2R,6S,13aS,14aR,16aS)-N-(cyclopropylsulfonyl)-2-{[8-methyl-2-[4-(1-methylethyl)-1,3-thiazol-2-yl]-7-(methyloxy)-4-quinolinyl]oxy}-5,16-dioxo-6-{[(4-phenyl-1-piperidinyl)carbonyl]amino}-1,2,3,6,7,8,9,10,11,13a,14,15,16,16a-tetradecahydrocyclopropa[e]pyrrolo[1,2-a][1,4]diazacyclopentadecine-14a(5H)-carboxamide]: the IC50 in experiment [1] and in experiment [2] was below 0.01 µM throughout.
`COc1ccc2c(O[C@@H]3C[C@H]4C(=O)N[C@]5(C(=O)NS(=O)(=O)C6CC6)C[C@H]5/C=C\CCCCC[C@H](NC(=O)N5CCC(N6CCCC6)CC5)C(=O)N4C3)cc(-c3nc(C(C)C)cs3)nc2c1C` [Example 21, (2R,6S,13aS,14aR,16aS)-N-(cyclopropylsulfonyl)-2-{[8-methyl-2-[4-(1-methylethyl)-1,3-thiazol-2-yl]-7-(methyloxy)-4-quinolinyl]oxy}-5,16-dioxo-6-({[4-(1-pyrrolidinyl)-1-piperidinyl]carbonyl}amino)-1,2,3,6,7,8,9,10,11,13a,14,15,16,16a-tetradecahydrocyclopropa[e]pyrrolo[1,2-a][1,4]diazacyclopentadecine-14a(5H)-carboxamide]: the half-maximal inhibitory concentration (IC50) in experiment [1] and in experiment [2] was below 0.01 µM in each case.
Regarding `COc1ccc2c(O[C@@H]3C[C@H]4C(=O)N[C@]5(C(=O)NS(=O)(=O)C6CC6)C[C@H]5/C=C\CCCCC[C@H](NC(=O)N5CCN(C6CCCC6)CC5)C(=O)N4C3)cc(-c3nc(C(C)C)cs3)nc2c1C` [Example 13, (2R,6S,13aS,14aR,16aS)-6-{[(4-cyclopentyl-1-piperazinyl)carbonyl]amino}-N-(cyclopropylsulfonyl)-2-{[8-methyl-2-[4-(1-methylethyl)-1,3-thiazol-2-yl]-7-(methyloxy)-4-quinolinyl]oxy}-5,16-dioxo-1,2,3,6,7,8,9,10,11,13a,14,15,16,16a-tetradecahydrocyclopropa[e]pyrrolo[1,2-a][1,4]diazacyclopentadecine-14a(5H)-carboxamide], the IC50 in experiment [1] and in experiment [2] was below 0.01 µM in each case.
`COc1ccc2c(O[C@@H]3C[C@H]4C(=O)N[C@]5(C(=O)NS(=O)(=O)C6CC6)C[C@H]5/C=C\CCCCC[C@H](NC(=O)N5CC(F)(F)C5)C(=O)N4C3)cc(-c3nc(C4CC4)cs3)nc2c1C` [Example 33, (2R,6S,13aS,14aR,16aS,Z)-N-(cyclopropylsulfonyl)-2-(2-(4-cyclopropylthiazol-2-yl)-7-methoxy-8-methylquinolin-4-yloxy)-6-(3,3-difluoroazetidine-1-carboxamido)-5,16-dioxo-1,2,3,5,6,7,8,9,10,11,13a,14,14a,15,16,16a-hexadecahydrocyclopropa[e]pyrrolo[1,2-a][1,4]diazacyclopentadecine-14a-carboxamide]: the IC50 in experiment [1] and in experiment [2] was below 0.01 µM each time.
Take `COc1ccc2c(O[C@@H]3C[C@H]4C(=O)N[C@]5(C(=O)NS(=O)(=O)C6CC6)C[C@H]5/C=C\CCCCC[C@H](NC(=O)N5CCC(O)CC5)C(=O)N4C3)cc(-c3nc(C(C)C)cs3)nc2c1C` [Example 22, (2R,6S,13aS,14aR,16aS)-N-(cyclopropylsulfonyl)-6-{[(4-hydroxy-1-piperidinyl)carbonyl]amino}-2-{[8-methyl-2-[4-(1-methylethyl)-1,3-thiazol-2-yl]-7-(methyloxy)-4-quinolinyl]oxy}-5,16-dioxo-1,2,3,6,7,8,9,10,11,13a,14,15,16 ,16a-tetradecahydrocyclopropa[e]pyrrolo[1,2-a][1,4]diazacyclopentadecine-14a(5H)-carboxamide]: the IC50 in experiment [1] and in experiment [2] was below 0.01 µM in each case.
Turning to `CCN(C)C(=O)N[C@H]1CCCCC/C=C\[C@@H]2C[C@@]2(C(=O)NS(=O)(=O)C2CC2)NC(=O)[C@@H]2C[C@@H](Oc3cc(-c4nc(C(C)C)cs4)nc4c(C)c(OC)ccc34)CN2C1=O` [Example 17], the IC50 in experiment [1] and in experiment [2] was below 0.01 µM each time.
For `COc1ccc2c(O[C@@H]3C[C@H]4C(=O)N[C@]5(C(=O)NS(=O)(=O)C6CC6)C[C@H]5/C=C\CCCCC[C@H](NC(=O)N5CCC(CC(N)=O)CC5)C(=O)N4C3)cc(-c3nc(C(C)C)cs3)nc2c1C` [Example 23, (2R,6S,13aS,14aR,16aS)-6-({[4-(2-amino-2-oxoethyl)-1-piperidinyl]carbonyl}amino)-N-(cyclopropylsulfonyl)2-{[8-methyl-2-[4-(1-methylethyl)-1,3-thiazol-2-yl]-7-(methyloxy)-4-quinolinyl]oxy}-5,16-dioxo-1,2,3,6,7,8,9,10,11,13a,14,15,16,16a-tetradecahydrocyclopropa[e]pyrrolo[1,2-a][1,4]diazacyclopentadecine-14a(5H)-carboxamide], the IC50 in experiment [1] and in experiment [2] was below 0.01 µM in each case.
In the case of `CCN(C(=O)N[C@H]1CCCCC/C=C\[C@@H]2C[C@@]2(C(=O)NS(=O)(=O)C2CC2)NC(=O)[C@@H]2C[C@@H](Oc3cc(-c4nc(C5CC5)cs4)nc4c(C)c(OC)ccc34)CN2C1=O)C(C)C` [Example 5, (2R,6S,13aS,14aR,16aS)-N-(cyclopropylsulfonyl)-2-{[2-(4-cyclopropyl-1,3-thiazol-2-yl)-8-methyl-7-(methyloxy)-4-quinolinyl]oxy}-6-({[ethyl(1-methylethyl)amino]carbonyl}amino)-5,16-dioxo-1,2,3,6,7,8,9,10,11,13a,14,15,16,16a-tetradecahydrocyclopropa[e]pyrrolo[1,2-a][1,4]diazacyclopentadecine-14a(5H)-carboxamide], the concentration for half-maximal inhibition (IC50) in experiment [1] and in experiment [2] was below 0.01 µM each time.
In the case of `COc1ccc2c(O[C@@H]3C[C@H]4C(=O)N[C@]5(C(=O)NS(=O)(=O)C6CC6)C[C@H]5/C=C\CCCCC[C@H](NC(=O)N5CCOCC5)C(=O)N4C3)cc(-c3nc(C(C)C)cs3)nc2c1C` [Example 14], the IC50 in experiment [1] and in experiment [2] was below 0.01 µM throughout.
With `COc1ccc2c(O[C@@H]3C[C@H]4C(=O)N[C@]5(C(=O)NS(=O)(=O)C6CC6)C[C@H]5/C=C\CCCCC[C@H](NC(=O)N5CCC5)C(=O)N4C3)cc(-c3nc(C4CC4)cs3)nc2c1C` [Example 32, (2R,65,13aS,14aR,16aS,Z)-6-(azetidine-1-carboxamido)-N-(cyclopropylsulfonyl)-2-(2-(4-cyclopropylthiazol-2-yl)-7-methoxy-8-methylquinolin-4-yloxy)-5,16-dioxo-1,2,3,5,6,7,8,9,10,11,13a,14,14a,15,16,16a-hexadecahydrocyclopropa[e]pyrrolo[1,2-a][1,4]diazacyclopentadecine-14a-carboxamide], the IC50 in experiment [1] and in experiment [2] was below 0.01 µM throughout.
Turning to `CCN(CC)C(=O)N[C@H]1CCCCC/C=C\[C@@H]2C[C@@]2(C(=O)NS(=O)(=O)C2CC2)NC(=O)[C@@H]2C[C@@H](Oc3cc(-c4nc(C5CC5)cs4)nc4c(C)c(OC)ccc34)CN2C1=O` [Example 26, (2R,6S,13aS,14aR,16aS,Z)-N-(cyclopropylsulfonyl)-2-(2-(4-cyclopropylthiazol-2-yl)-7-methoxy-8-methylquinolin-4-yloxy)-6-(3,3-diethylureido)-5,16-dioxo-1,2,3,5,6,7,8,9,10,11,13a,14,14a,15,16,16a-hexadecahydrocyclopropa[e]pyrrolo[1,2-a][1,4]diazacyclopentadecine-14a-carboxamide], the IC50 in experiment [1] and in experiment [2] was below 0.01 µM throughout.

These data come from patent US20100196321A1, “COMPOUNDS” (GLAXOSMITHKLINE LLC, priority 2009, published 2010).
